Common to all, as to assay type: biochemical
Data set [1] addresses Human pancreatic cholesterol esterase. Kind of data set: Inhibition of cholesteryl 14C-oleate hydrolysis by cholesterol esterase. The settings on record: for IC50 cholesterol esterase inhibition: 37° C., fifteen minutes, pH 7.5.
Data set [2] has as its target human 100 kDa cholesterol esterase. The experiment in a line: Inhibition of triolein hydrolysis by cholesterol esterase. The settings on record: table 3; triolein used instead of cholesterol oleate. On the procedure:
(§1) Alginic acid from Macrocystis pyrifera (kelp) was dissolved in water at a concentration of 1 mg/ml. This stock solution was used to prepare various polysaccharide concentrations down to 10^-5 mg/ml. Human pancreatic cholesterol esterase was purified as described by Bosner et al., Proc Nat'l. Acad. Sci., 85, 7438 (1988). To measure cholesterol esterase inhibition by alginic acid, 50 μl of cholesterol esterase (10 μg/ml). 75 μl of phosphatidylcholine vesicles containing cholesteryl ^14 C-oleate (1 mM 2,000 CPM/nmole). 25 μl of 100 mM taurocholate, 120 μl of 150 mM Tris. pH 7.5 and 30 μl of test alginic acid solution were incubated at 37° C. for fifteen minutes. The assay was quenched by placing the reaction vessels in a 4° C. ice bath and by adding 0.6 ml of 0.3 N NaOH and 3 ml of benzene/chloroform/methanol (1 0/1.2/0 5). The quenched reactions were vortexed for 30 seconds, centrifuged at 3,000 g for 15 minutes and 1 ml of the upper aqueous phase was added to 7 ml of Aquasol-2 (DuPont) with 0.025 ml of 6 N HCl. These mixtures were vortexed for one minute and counted for ^14 C-oleate The counts were compared to a sample which contained cholesterol esterase but no alginic acid to determine the percentage of inhibition.
(The same assay procedure was used as described in Part I, only triolein was used instead of cholesterol oleate.) As shown in the table below, the IC50 for inhibition of triolein hydrolysis is nearly the same as that for cholesteryl oleate hydrolysis.

The test system of the next data set is cholesterol esterase. Kind of data set: Cholesterol esterase inhibition by water extract of baked muffin (stability under baking conditions). Conditions: qualitative statement. The protocol:
as §1
The sulfated polysaccharides described here retain their inhibitory activity for prolonged periods at elevated temperatures. […]

Where [3] appears, read: cholesteryl 14C-oleate substrate.
Setting [4] is: cholesteryl 14C-oleate substrate, molar value assumes a molecular weight (alginic acid 240 kDa, pectin 20 kDa, chitin 300 kDa, cellulose sulfate 500 kDa), read-out: IC50 cholesterol esterase inhibition.
The mark [5] stands for this setting: table 3, cholesteryl oleate hydrolysis, read-out: IC50 (nM) Cholesteryl Oleate.
The mark [6] stands for this setting: table 2, summary of sulfated polysaccharides, read-out: IC50.

Read-outs that look alike come from different tables or passages of the source.

The term IC50 denotes the concentration that inhibits the measured activity by half.

Take Alginic acid [reference compound]: the “IC50 cholesterol esterase inhibition” value in data set [1] (setting [3]) came out at 4 µg/mL. The IC50 in data set [1] (setting [4]) amounted to 20 nM; in data set [1] (setting [5]), 20 nM; in data set [2], 42 nM. In addition, the “Enhancement Factor” value in data set [1] (table 1, enhancement of inhibition relative to native alginic acid (fold)) was 1.0.

Consider Cellulose Sulfate, for which the IC50 is 0.02 nM in data set [1] (setting [4]), 0.02 nM in data set [1] (setting [6]), 0.02 nM in data set [1] (setting [5]) and 0.06 nM in data set [2]. Moreover, in the data set with cholesterol esterase, the “Retention of inhibitory activity at elevated temperatures / stability under baking conditions (in words)” value is on record as “stable under baking conditions”.

For the substance Chitin Sulfate, the IC50 in data set [1] (setting [6]) was 0.06 nM; in data set [1] (setting [5]), 0.06 nM; in data set [2] it was 0.14 nM.

As for Chitosan Sulfate, the “IC50 cholesterol esterase inhibition” value in data set [1] (setting [3]) amounted to 0.015 µg/mL. The half-inhibitory concentration (IC50) in data set [1] (setting [4]) stood at 0.03 nM; in data set [1] (setting [6]) it was 0.03 nM; in data set [1] (setting [5]), 0.03 nM; in data set [2], 0.16 nM.

For Dextran Sulfate, the IC50 in data set [1] (setting [4]), in data set [1] (setting [6]) and in data set [1] (setting [5]) was 0.02 nM throughout.

For the substance pectin [reference compound], in data set [1] (qualitative statement), the “Inhibition of cholesterol esterase (in words)” value was “does not inhibit cholesterol esterase”.

Values taken from US5017565A, “Use of sulfated polysaccharides to inhibit pancreatic cholesterol esterase” (priority 1989, dated 1991).
